# Target: T1, human mAChR M1 (Homo sapiens, UniProt P11229)
# T1 construct: host or cells: CHO-K1 (ATCC), stably transfected using Lipofectamine 2000
# T1 sequence (P11229 1-460): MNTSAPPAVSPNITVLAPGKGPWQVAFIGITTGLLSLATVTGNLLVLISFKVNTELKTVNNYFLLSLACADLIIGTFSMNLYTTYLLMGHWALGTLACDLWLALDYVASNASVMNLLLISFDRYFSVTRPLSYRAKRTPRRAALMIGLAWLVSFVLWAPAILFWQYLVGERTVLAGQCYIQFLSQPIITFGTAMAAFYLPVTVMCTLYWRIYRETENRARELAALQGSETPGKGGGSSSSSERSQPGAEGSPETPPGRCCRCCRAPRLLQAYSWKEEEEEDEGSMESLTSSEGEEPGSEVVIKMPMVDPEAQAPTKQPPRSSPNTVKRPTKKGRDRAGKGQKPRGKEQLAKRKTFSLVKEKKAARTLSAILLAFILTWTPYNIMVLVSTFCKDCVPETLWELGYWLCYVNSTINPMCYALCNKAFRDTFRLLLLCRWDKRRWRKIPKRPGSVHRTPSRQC
# Assay: mAChR M1 cell-based functional assay (calcium mobilization, Fluo-4, FDSS)
# Conditions: CHO-K1 cells stably expressing hM1, calcium flux; for Emax: PAM mode with EC20 acetylcholine; for EC50: concentration-dependent increase in the EC20 acetylcholine response
# Description: Chinese hamster ovary (CHO-K1) cells stably expressing rat (r)M1 were purchased from the American Type Culture Collection and cultured according to their indicated protocol. CHO cells stably expressing human (h)M2, hM3, and hM5 were described previously (Levey, et al., 1991); hM1 and hM4 cDNAs were purchased from Missouri S&T cDNA Resource; rM4 cDNA was provided by T. I. Bonner (National Institutes of Health, Bethesda, Md.). rM2 and rM3 were cloned from a rat brain cDNA library and sequence verified. hM1, rM2, rM3, hM4, and rM4 cDNAs were used to stably transfect CHO-K1 cells purchased from the American Type Culture Collection using Lipofectamine 2000. To make stable rM2, hM2, rM3, hM4, and rM4 cell lines for use in calcium mobilization assays, these cells also were stably transfected with a chimeric G-protein (Gqi5) (provided by B. R. Conklin, University of California, San Francisco) using Lipofectamine 2000. rM1, hM1, rM3, hM3, rM5, and hM5 cells were grown in Ham's F-12 medium containing 10% heat-inactivated fetal bovine serum (FBS), 20 mM HEPES, and 50 µg/mL G418 sulfate. rM2-Gqi5, hM2-Gqi5, and hM4-Gqi5 cells were grown in the same medium also containing 500 μg/mL Hygromycin B. Stable rM4-Gqi5 cells were grown in DMEM containing 10% heat-inactivated FBS, 20 mM HEPES, 400 μg/mL G418 sulfate, and 500 μg/mL Hygromycin B.
# For high throughput measurement of agonist-evoked increases in intracellular calcium, CHO-K1 cells stably expressing muscarinic receptors were plated in growth medium lacking G418 and hygromycin at 15,000 cells/20 μL/well in Greiner 384-well black-walled, tissue culture (TC)-treated, clear-bottom plates (VWR). Cells were incubated overnight at 37° C. and 5% CO2. The next day, cells were washed using an ELX 405 (BioTek) with four washes ([…]) of assay buffer then aspirated to 20 μL. Next, 20 μL of 16 μM Fluo-4/acetoxymethyl ester (Invitrogen, Carlsbad, Calif.) prepared as a 2.3 mM stock in DMSO and mixed in a 1:1 ratio with 10% (w/v) Pluronic F-127 and diluted in assay buffer was added to the wells and the cell plates were incubated for 50 min at 37° C. and 5% CO2. Dye was removed by washing with the ELX 405 (four 80 μL washes of assay buffer) then aspirated to 20 μL. Compound master plates were formatted in an 11 point CRC format (1:3 dilutions) in 100% DMSO with a starting concentration of 10 mM using the BRAVO liquid handler (Agilent). Test compound CRCs were then transferred to daughter plates (240 nL) using the Echo acoustic plate reformatter (Labcyte, Sunnyvale, Calif.) and then diluted into assay buffer (40 μL) to a 2× stock using a Thermo Fisher Combi (Thermo Fisher Scientific, Waltham, Mass.).
# Calcium flux was measured using the Functional Drug Screening System (FDSS) 6000 (Hamamatsu Corporation, Tokyo, Japan) as an increase in the fluorescent static ratio. Compounds were applied to cells (20 μL, 2×) using the automated system of the FDSS 6000 at 4 s into the 300 s protocol and the data were collected at 1 Hz. At 144 s into the 300s protocol, 10 μL of an EC20 concentration of the muscarinic receptor agonist acetylcholine was added (5×), followed by the addition of 12 μL an EC80 concentration of acetylcholine at the 230 s time point (5×). Agonist activity was analyzed as a concentration-dependent increase in calcium mobilization upon compound addition. Positive allosteric modulator activity was analyzed as a concentration-dependent increase in the EC20 acetylcholine response. Antagonist activity was analyzed as a concentration-dependent decrease in the EC80 acetylcholine response. Concentration-response curves were generated using a four-parameter logistical equation in XLfit curve fitting software (IDBS, Bridgewater, N.J.) for Excel (Microsoft, Redmond, Wash.) or Prism (GraphPad Software, Inc., San Diego, Calif.).
# Activity (EC50 and Emax) was determined in the mAChR M1 cell-based functional assay as described above and the data are shown in Table 2. […]
Emax [%],EC50 [µM],Structure (SMILES)
70,,"Cc1nn(C)cc1-c1ccc(CN2Cc3sccc3C2=O)c(F)c1 [Compound 43, 5-(4-(1,3-dimethyl-1H-pyrazol-4-yl)-2-fluorobenzyl)-5,6-dihydro-4H-thieno[2,3-c]pyrrol-4-one]"
51,2.78,"Cn1cc2cc(-c3ccc(CN4Cc5sccc5C4=O)c(F)c3)ccc2n1 [Compound 44, 5-(2-fluoro-4-(2-methyl-2H-indazol-5-yl)benzyl)-5,6-dihydro-4H-thieno[2,3-c]pyrrol-4-one]"
50,4.46,"O=C1c2ccsc2CN1Cc1ccc(-c2ccc3nccn3c2)cc1F [Compound 45, 5-(2-fluoro-4-(imidazo[1,2-a]pyridin-6-yl)benzyl)-5,6-dihydro-4H-thieno[2,3-c]pyrrol-4-one]"
50,,"Cn1cc(-c2ccc(CN3Cc4sccc4C3=O)cc2)cn1 [Compound 46, 5-(4-(1-methyl-1H-pyrazol-4-yl)benzyl)-5,6-dihydro-4H-thieno[2,3-c]pyrrol-4-one]"
30,,"O=C1c2ccsc2CN1Cc1ccc(-c2cscn2)cc1 [Compound 47, 5-(4-(thiazol-4-yl)benzyl)-5,6-dihydro-4H-thieno[2,3-c]pyrrol-4-one]"
33,,"Cn1cc(-c2ccc(CN3Cc4sccc4C3=O)cc2)nn1 [Compound 48, 5-(4-(1-methyl-1H-1,2,3-triazol-4-yl)benzyl)-5,6-dihydro-4H-thieno[2,3-c]pyrrol-4-one]"
60,6.45,"Cn1cc2c(-c3cc(F)c(CN4Cc5ccn(CC6CCCO6)c5C4=O)c(F)c3)cccc2n1 (centres unmarked) [Compound 49, 5-(2,6-difluoro-4-(2-methyl-2H-indazol-4-yl)benzyl)-1-((tetrahydrofuran-2-yl)methyl)-4,5-dihydropyrrolo[3,4-b]pyrrol-6(1H)-one]"
38,3.44,"Cn1cc(-c2cc(F)c(CN3Cc4ccn(CC5CCCO5)c4C3=O)c(F)c2)cn1 (centres unmarked) [Compound 50, 5-(2,6-difluoro-4-(1-methyl-1H-pyrazol-4-yl)benzyl)-1-((tetrahydrofuran-2-yl)methyl)-4,5-dihydropyrrolo[3,4-b]pyrrol-6(1H)-one]"
51,3.45,"Cc1nn(C)cc1-c1cc(F)c(CN2Cc3ccn(CC4CCCO4)c3C2=O)c(F)c1 (centres unmarked) [Compound 51, 5-(4-(1,3-dimethyl-1H-pyrazol-4-yl)-2,6-difluorobenzyl)-1-((tetrahydrofuran-2-yl)methyl)-4,5-dihydropyrrolo[3,4-b]pyrrol-6(1H)-one]"
33,2.15,"O=C1c2c(ccn2CC2CCCO2)CN1Cc1c(F)cc(-c2ccc3nccn3c2)cc1F (centres unmarked) [Compound 52, 5-(2,6-difluoro-4-(imidazo[1,2-a]pyridin-6-yl)benzyl)-1-((tetrahydrofuran-2-yl)methyl)-4,5-dihydropyrrolo[3,4-b]pyrrol-6(1H)-one]"
63,,"CCn1ccc2c1C(=O)N(Cc1c(F)cc(-c3cccc4nn(C)cc34)cc1F)C2 [Compound 53, 5-(2,6-difluoro-4-(2-methyl-2H-indazol-4-yl)benzyl)-1-ethyl-4,5-dihydropyrrolo[3,4-b]pyrrol-6(1H)-one]"
69,5.58,"Cn1cc2c(-c3cc(F)c(CN4Cc5ccn(CCCO)c5C4=O)c(F)c3)cccc2n1 [Compound 54, 5-(2,6-difluoro-4-(2-methyl-2H-indazol-4-yl)benzyl)-1-(3-hydroxypropyl)-4,5-dihydropyrrolo[3,4-b]pyrrol-6(1H)-one]"
59,8.98,"Cn1cc2c(-c3cc(F)c(CN4Cc5ccn(CC6CCOCC6)c5C4=O)c(F)c3)cccc2n1 [Compound 55, 5-(2,6-difluoro-4-(2-methyl-2H-indazol-4-yl)benzyl)-1-((tetrahydro-2H-pyran-4-yl)methyl)-4,5-dihydropyrrolo[3,4-b]pyrrol-6(1H)-one]"
80,3.6,"Cn1cc2c(-c3cc(F)c(CN4Cc5occc5C4=O)c(F)c3)cccc2n1 [Compound 56, 5-(2,6-difluoro-4-(2-methyl-2H-indazol-4-yl)benzyl)-5,6-dihydro-4H-furo[2,3-c]pyrrol-4-one]"
42,0.99,"Cn1cc2cc(-c3cc(F)c(CN4Cc5occc5C4=O)c(F)c3)ccc2n1 [Compound 57, 5-(2,6-difluoro-4-(2-methyl-2H-indazol-5-yl)benzyl)-5,6-dihydro-4H-furo[2,3-c]pyrrol-4-one]"
78,,"Cn1cc(-c2cc(F)c(CN3Cc4occc4C3=O)c(F)c2)cn1 [Compound 58, 5-(2,6-difluoro-4-(1-methyl-1H-pyrazol-4-yl)benzyl)-5,6-dihydro-4H-furo[2,3-c]pyrrol-4-one]"
90,,"Cc1nn(C)cc1-c1cc(F)c(CN2Cc3occc3C2=O)c(F)c1 [Compound 59, 5-(4-(1,3-dimethyl-1H-pyrazol-4-yl)-2,6-difluorobenzyl)-5,6-dihydro-4H-furo[2,3-c]pyrrol-4-one]"
50,,"Cn1cc2cccc(-c3cc(F)c(CN4Cc5occc5C4=O)c(F)c3)c2n1 [Compound 60, 5-(2,6-difluoro-4-(2-methyl-2H-indazol-7-yl)benzyl)-5,6-dihydro-4H-furo[2,3-c]pyrrol-4-one]"
51,,"Cc1[nH]cc2c1C(=O)N(Cc1c(F)cc(-c3cccc4nn(C)cc34)cc1F)C2 [Compound 61, 2-(2,6-difluoro-4-(2-methyl-2H-indazol-4-yl)benzyl)-6-methyl-3,5-dihydropyrrolo[3,4-c]pyrrol-1(2H)-one]"

# From US20190330226A1, “POSITIVE ALLOSTERIC MODULATORS OF THE MUSCARINIC ACETYLCHOLINE RECEPTOR M1” (Vanderbilt University, priority 2018, published 2019)
